According to patent US9000045B2, “CETP activity inhibitors” (Japan Tobacco Inc., priority 1997, dated 2015):

Target: T1, CETP (Homo sapiens, UniProt P11597)
T1 sequence (P11597 18-493): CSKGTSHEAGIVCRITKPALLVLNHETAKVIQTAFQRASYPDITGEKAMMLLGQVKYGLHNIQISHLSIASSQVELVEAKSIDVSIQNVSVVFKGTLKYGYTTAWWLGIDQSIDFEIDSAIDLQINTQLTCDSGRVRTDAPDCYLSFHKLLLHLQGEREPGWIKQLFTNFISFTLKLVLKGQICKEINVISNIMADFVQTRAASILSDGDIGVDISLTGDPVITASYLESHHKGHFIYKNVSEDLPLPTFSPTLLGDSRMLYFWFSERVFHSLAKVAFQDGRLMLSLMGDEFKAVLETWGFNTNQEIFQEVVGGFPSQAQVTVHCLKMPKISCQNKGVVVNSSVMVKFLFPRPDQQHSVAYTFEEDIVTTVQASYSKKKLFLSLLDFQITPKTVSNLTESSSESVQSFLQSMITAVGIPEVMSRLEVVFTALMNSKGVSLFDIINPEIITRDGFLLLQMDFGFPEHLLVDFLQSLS
Assay: In vitro CETP activity inhibitory effect in whole plasma
Type: biochemical
Parameters: Plasma containing [^3H]CE-HDL3 (600,000 dpm/ml) was prepared by adding donor lipoprotein obtained in the above (1) to plasma from healthy subjects; from tissue; host or cells: whole plasma of healthy subjects
Details: plasma from healthy subjects containing [3H]CE-HDL3, incubated 4 hours at 37° C.; read-out: CETP activity inhibition in whole plasma IC50
Description: The fraction thus obtained was dialyzed against a PBS solution [10 mM Na2HPO4/10 mM NaH2PO4/0.15 M NaCl/1 mM EDTA (pH 7.4)]. Then, tritium-labeled cholesterol (10 nM) (50.3 Ci/mM) was dissolved in 95% ethanol and added gradually to the above HDL3 fraction under stirring. The solution was incubated for 18 hours at 37° C. […] After incubation, KBr was added and specific gravity was adjusted to d=1.21 g/ml. […] A sample solution was prepared using a 1:1 solution of N-methylpyrrolidone and polyethyleneglycol 400 as a solvent. […] Based on the inhibition rate (%) of CETP activity, IC50 value of each sample was calculated.

Row | SMILES | IC50 [µM]
1 | CC(C)CCC1(C(=O)Nc2ccccc2SC(=O)[C@@H]2CCC(=O)N2)CCCCC1 [Example 25-54] | 6
2 | CC(C)CCC1(C(=O)Nc2ccccc2SC(=O)[C@@H]2CCCN2C(=O)c2ccccc2)CCCCC1 [Example 25-55] | 10
3 | CC(C)CCC1(C(=O)Nc2ccccc2SC(=O)c2cccnc2)CCCC1 [Example 25-60] | 5
4 | CC(C)CCC1(C(=O)Nc2ccccc2SC(=O)C2CCCCC2)CCCC1 [Example 25-64] | 20
5 | CC(C)CCC1(C(=O)Nc2ccccc2SC(=O)C2CCN(C)CC2)CCCC1 [Example 25-65] | 9
6 | CC1(C(=O)Nc2cc(C(F)(F)F)ccc2SC(=O)Cc2ccccc2)CCCCC1 [Example 25-66] | 35
7 | CC(C)(C)C(=O)Sc1ccc(C(F)(F)F)cc1NC(=O)C1(C)CCCCC1 [Example 25-67] | 40
8 | CC(C)(C)C(=O)Sc1cc(F)c(F)cc1NC(=O)C1(C)CCCCC1 [Example 25-72] | 27
9 | CC(=O)N[C@@H](Cc1ccccc1)C(=O)Sc1cc(Cl)c(Cl)cc1NC(=O)C1(CCC(C)C)CCCCC1 [Example 25-76] | 36
10 | CC(C)CCC1(C(=O)Nc2cc(Cl)c(Cl)cc2SC(=O)c2cccnc2)CCCCC1 [Example 25-77] | 7
11 | CC(C)CCC1(C(=O)Nc2cc(Cl)c(Cl)cc2SC(=O)C2CCN(C)CC2)CCCCC1 [Example 25-78] | 11
12 | COC(=O)CCC(=O)Sc1cc(Cl)c(Cl)cc1NC(=O)C1(CCC(C)C)CCCCC1 [Example 25-79] | 6
13 | CC(C)CCC1(C(=O)Nc2cc(Cl)c(Cl)cc2SC(=O)CN(C)C)CCCCC1 [Example 25-80] | 5
14 | CC(C)CCC1(C(=O)Nc2cc(Cl)c(Cl)cc2SC(=O)c2ccccc2)CCCCC1 [Example 25-81] | 14
15 | CC(C)CCC1(C(=O)Nc2cc(Cl)c(Cl)cc2SC(=O)C2CCCCC2)CCCCC1 [Example 25-82] | 17
16 | CC(C)CCC1(C(=O)Nc2cc(Cl)c(Cl)cc2SC(=O)Cc2ccccc2)CCCCC1 [Example 25-83] | 18
17 | CCC(=O)Sc1cc(Cl)c(Cl)cc1NC(=O)C1(CCC(C)C)CCCCC1 [Example 25-85] | 7
18 | COCC(=O)Sc1cc(Cl)c(Cl)cc1NC(=O)C1(CCC(C)C)CCCCC1 [Example 25-86] | 10
19 | CC(C)CCC1(C(=O)Nc2cc(Cl)c(Cl)cc2SC(=O)c2cccnc2)CCCC1 [Example 25-87] | 6
20 | COC(=O)Sc1cc(Cl)c(Cl)cc1NC(=O)C1(CCC(C)C)CCCCC1 [Example 25-91] | 22
21 | CCSC(=O)Sc1ccc(C(F)(F)F)cc1NC(=O)C1(C)CCCCC1 [Example 25-92] | 19
22 | CC1(C(=O)Nc2cc(C(F)(F)F)ccc2SC(=O)Sc2ccccc2)CCCCC1 [Example 25-93] | 22

Row | SMILES | IC50 [µM]
23 | CC(C)(C)C(=O)Nc1ccccc1SC(=O)Sc1ccccc1NC(=O)C(C)(C)C [Example 25-94] | 18
24 | CC1(C(=O)Nc2ccccc2SC(=O)Sc2ccccc2NC(=O)C2(C)CCCCC2)CCCCC1 [Example 25-95] | 18
25 | CC1(C(=O)Nc2cc(C(F)(F)F)ccc2SC(=O)Sc2ccc(C(F)(F)F)cc2NC(=O)C2(C)CCCCC2)CCCCC1 [Example 25-96] | 8
26 | CC(C)CCC1(C(=O)Nc2ccccc2SC(=O)NC(C)C)CCCCC1 [Example 25-98] | 8
27 | CCNC(=O)Sc1ccccc1NC(=O)C1(CCC(C)C)CCCCC1 [Example 25-99] | 6
28 | CC(C)CCC1(C(=O)Nc2cc(Cl)c(Cl)cc2SC(=O)NC(C)C)CCCCC1 [Example 25-103] | 12
29 | CCNC(=O)Sc1cc(Cl)c(Cl)cc1NC(=O)C1(CCC(C)C)CCCCC1 [Example 25-104] | 9
30 | CC(C)(C)C(=O)Sc1ccccc1NC(=O)C1(C)CCCCC1 [Example 30] | 72
31 | CC(C)(C)C(=O)Nc1ccccc1SC(=O)Cc1ccccc1 [Example 31] | 32
32 | CC1(C(=O)Nc2ccccc2SC(=O)c2ccccc2)CCCCC1 [Example 32] | 32
33 | CC(C)CCC1(C(=O)Nc2ccccc2SC(=O)c2cccnc2)CCCCC1 [Example 35] | 4
34 | CC(C)CCC1(C(=O)Nc2ccccc2SC(=O)C2CCCCC2)CCCCC1 [Example 43] | 49
35 | CC(C)CCC1(C(=O)Nc2ccccc2SC(=O)c2ccccc2)CCCCC1 [Example 44] | 23
36 | CC(C)CCC1(C(=O)Nc2cc(Cl)c(Cl)cc2SC(=O)C(C)(C)C)CCCCC1 [Example 50] | 2
37 | CC(C)CCC1(C(=O)Nc2cc(Cl)c(Cl)cc2SC(=O)C(C)(C)C)CCCC1 [Example 51] | 16
38 | CC(C)CCC1(C(=O)Nc2ccccc2SC(=O)CCCCC(=O)O)CCCCC1 [Example 53] | 8
39 | COC(=O)Sc1ccccc1NC(=O)C1(CCC(C)C)CCCCC1 [Example 54] | 12
40 | CC1(C(=O)Nc2ccccc2SC(=O)Sc2ccccc2)CCCCC1 [Example 55] | 65
41 | CC(C)(C)C(=O)Nc1cc(C(F)(F)F)ccc1SC(=O)C(C)(C)C [Example 57] | 41
42 | CC(C)C1(C(=O)Nc2cc(Cl)c(Cl)cc2SC(=O)C(C)(C)C)CCCCC1 [Example 66, S-[4,5-dichloro-2-(1-isopropylcyclohexanecarbonyl-amino)phenyl]2,2-dimethylthiopropionate] | 7
43 | CC(C)(C)C(=O)Sc1cc(Cl)c(Cl)cc1NC(=O)C1C(C)(C)C1(C)C [Example 66-17] | 18

Further lines, results first:

Row | IC50 [µM] | SMILES
44 | 24 | CC1(C(=O)Nc2cc(Cl)ccc2SC(=O)Cc2ccccc2)CCCCC1 [Example 66-3]
45 | 28 | CC(C)(C)C(=O)Sc1ccc(Cl)cc1NC(=O)C1(C)CCCCC1 [Example 66-4]
46 | 9 | CC(C)(C)C(=O)Sc1cc(Cl)c(Cl)cc1NC(=O)C1(C)CCCCC1 [Example 66-9]
47 | 23 | CC(=O)N[C@@H](Cc1ccccc1)C(=O)Sc1cc(Cl)c(Cl)cc1NC(=O)C1(C)CCCCC1 [Example 66-10]
48 | 22 | CC(=O)N[C@H](Cc1ccccc1)C(=O)Sc1cc(Cl)c(Cl)cc1NC(=O)C1(C)CCCCC1 [Example 66-11]
49 | 17 | CC1(C(=O)Nc2cc(Cl)c(Cl)cc2SC(=O)[C@@H](N)Cc2ccccc2)CCCCC1 [Example 66-12]
50 | 11 | CC(C)CC(CC(C)C)C(=O)Nc1cc(Cl)c(Cl)cc1SC(=O)C(C)(C)C [Example 66-14]
51 | 8 | CCCC1(C(=O)Nc2cc(Cl)c(Cl)cc2SC(=O)C(C)(C)C)CCCCC1 [Example 66-16]
52 | 11 | CC(C)(C)C(=O)Sc1cc(Cl)c(Cl)cc1NC(=O)C1(C2CCCCC2)CCCCC1 [Example 66-18]
53 | 41 | CC(C)(C)C(=O)Sc1cc(Cl)c(Cl)cc1NC(=O)c1ccncc1 [Example 66-21]
54 | 19 | CC(C)(C)C(=O)Sc1cc(Cl)c(Cl)cc1NC(=O)[C@]12CCCC[C@@H]1CCCC2 [Example 66-22]
55 | 13 | CC(C)(C)C(=O)Sc1cc(Cl)c(Cl)cc1NC(=O)[C@]12CCCC[C@@H]1CCC2 [Example 66-23]
56 | 12 | CC(C)(C)C(=O)Sc1cc(Cl)c(Cl)cc1NC(=O)[C@@]12CCCC[C@@H]1CCC2 [Example 66-24]
57 | 19 | CC(C)(C)C(=O)Sc1cc(Cl)c(Cl)cc1NC(=O)C1CCCCC1 [Example 66-25]
58 | 8 | CC(C)(C)C(=O)Sc1cc(Cl)c(Cl)cc1NC(=O)C1CCC(C(C)(C)C)CC1 (stereo not drawn) [Example 66-26]
59 | 9 | CC(C)(C)C(=O)Sc1cc(Cl)c(Cl)cc1NC(=O)[C@H]1CC[C@H](C(C)(C)C)CC1 [Example 66-27]
60 | 18 | CC(C)(C)C(=O)Sc1cc(Cl)c(Cl)cc1NC(=O)CC1CCCCC1 [Example 66-28]
61 | 7 | CCCCC1(C(=O)Nc2cc(Cl)c(Cl)cc2SC(=O)C(C)(C)C)CCCCC1 [Example 66-29]
62 | 19 | CC(C)(C)C(=O)Sc1cc(Cl)c(Cl)cc1NC(=O)[C@H]1CC[C@H](C)CC1 [Example 66-30]
63 | 27 | CC(C)(C)C(=O)Sc1cc(Cl)c(Cl)cc1NC(=O)[C@H]1CC[C@H](C2CCCCC2)CC1 [Example 66-31]
64 | 22 | CC(C)[C@H]1CC[C@H](C(=O)Nc2cc(Cl)c(Cl)cc2SC(=O)C(C)(C)C)CC1 [Example 66-32]
65 | 19 | CCC[C@H]1CC[C@H](C(=O)Nc2cc(Cl)c(Cl)cc2SC(=O)C(C)(C)C)CC1 [Example 66-33]
66 | 22 | CCCCC[C@H]1CC[C@H](C(=O)Nc2cc(Cl)c(Cl)cc2SC(=O)C(C)(C)C)CC1 [Example 66-34]
67 | 26 | CC(C)C(C(=O)Nc1cc(Cl)c(Cl)cc1SC(=O)C(C)(C)C)C1CCCCC1 (stereo not drawn) [Example 66-38]
68 | 42 | CC(C)CC(C(=O)Nc1cc(Cl)c(Cl)cc1SC(=O)C(C)(C)C)C1CCCCC1 (stereo not drawn) [Example 66-40]
69 | 25 | CC(C)(C)C(=O)Sc1cc(Cl)c(Cl)cc1NC(=O)C(C)(C)C1CCCCC1 [Example 66-41]
